The values that follow are results of earlier work, collected in US20220241167A1, “PRODUCT FOR TREATING KERATINOUS FIBERS, CONTAINING SILANES OF SPECIFIC FORMULAE” (Henkel AG & Co. KGaA, priority 2019, published 2022).

The conditions of this data set: for solubility in water: 25° C.

SMILES strings stand for the structures.

In the case of `Nc1cc(S(=O)(=O)[O-])cc2cc(S(=O)(=O)[O-])c(N=Nc3ccccc3)c(O)c12.[Na+].[Na+]` [Acid Red 33, diantrium salt of 5-amino-4-hydroxy-3-(phenylazo)-naphthalene-2,7-disulphonate], the solubility in water result is given as “about 2.5 g/L”. Take `O=C([O-])C1=NN(c2ccc(S(=O)(=O)[O-])cc2)C(=O)C1N=Nc1ccc(S(=O)(=O)[O-])cc1.[Na+].[Na+].[Na+]` (stereo not drawn) [Acid Yellow 23, trisodium salt of 4,5-dihydro-5-oxo-1-(4-sulfophenyl)-4-((4-sulfophenyl)azo)-1H-pyrazole-3-carboxylic acid]: the “solubility in water (in words)” value (at 25° C.) was “highly soluble in water”. Regarding `O=S(=O)([O-])c1ccc(N=Nc2c(O)ccc3ccccc23)cc1.[Na+]` [Acid Orange 7, sodium salt of 4-[(2-hydroxy-1-naphthyl)azo]benzene sulphonate], the solubility in water entry is given as “more than 7 g/L”.
